The values below are quoted from earlier work in PubChem BioAssay AID1259409 (Chemical Carcinogenesis Research Information System (CCRIS), 2018).

For this series, the system named is rodent chemically induced tumor inhibition, incidence and multiplicity. In words: CCRIS tumor inhibitor studies.

`CN(C)C(=O)Oc1cccc([N+](C)(C)C)c1`: the “tumour outcome (control, treated, inhibition, significance)” value is, setting by setting: (Carcinogen: AZOXYMETHANE, 25843-45-2, Dose [Inhibitor]: 0.1 MG/KG BW 1/2D IN DEPOT FORM BEGINNING 3 WK PRIOR TO FIRST CARCINOGEN DOSE (STUDY DURATION: 40 WK), Route [Inhibitor]: SUBCUTANEOUS, Species: RAT, Strain/Sex: WISTAR/MALE, Target Tissue: Type of Lesion: COLON: TUMOR, Dose [Carcinogen]: 7.4 MG/KG BW IN 0.9% SALINE SOLUTION 1/WK FOR 10 WK, Promoter: NONE USED) 18/20 (90%), 9/19 (47%), 47%, p<0.02; (Carcinogen: N-METHYL-N'-NITRO-N-NITROSOGUANIDINE, 70-25-7, Dose [Inhibitor]: 0, 0.075 MG/KG 1/2 D BEGINNING POST CARCINOGEN TREATMENT (STUDY DURATION: 52 WK), Route [Inhibitor]: SUBCUTANEOUS, Species: RAT, Strain/Sex: WISTAR/MALE, Target Tissue: Type of Lesion: STOMACH: ADENOCARCINOMA, Dose [Carcinogen]: 75 UG/ML IN DRINKING WATER FOR 25 WK, Promoter: NONE USED) 16/20 (80%), 7/18 (39%), 51%, p<0.05; (Carcinogen: N-METHYL-N'-NITRO-N-NITROSOGUANIDINE, 70-25-7, Dose [Inhibitor]: 0, 0.1 MG/KG IN OLIVE OIL SUSPENSION 1/D BEGINNING 1 WK POST LAST CARCINOGEN DOSE AND CONTINUING FOR DURATION OF STUDY (, Species: RAT, Strain/Sex: WISTAR/MALE, Target Tissue: Type of Lesion: GLANDULAR STOMACH: ADENOCARCINOMA, Dose [Carcinogen]: 50 UG/ML IN DRINKING WATER FOR 25 WK, Promoter: NONE USED) 15/18 (83%), 7/19 (37%), 55%, p<0.02.

Regarding `CC(=O)N[C@@H](CS)C(=O)O`, the “tumour outcome (control, treated, inhibition, significance)” value by setting is: (Carcinogen: 4-(METHYLNITROSAMINO)-1-(3-PYRIDYL)-1-BUTANONE [64091-50-5], Dose [Inhibitor]: 80 MMOL/KG IN DIET FOR 17 WK BEGINNING 1 WK PRIOR TO FIRST CARCINOGEN DOSE (STUDY DURATION: 17 WK), Route [Inhibitor]: ORAL, Species: MOUSE, Strain/Sex: A/J/FEMALE, Target Tissue: Type of Lesion: LUNG: ADENOMA, Dose [Carcinogen]: 10 UMOL ONCE 1 WK POST FIRST INHIBITOR DOSE (STUDY DURATION: 17 WK), Promoter: NONE) 100%, 100%, 0%, not significant; (Carcinogen: 4-(METHYLNITROSAMINO)-1-(3-PYRIDYL)-1-BUTANONE [64091-50-5], Dose [Inhibitor]: 80 MMOL/KG IN DIET FOR 53 WK BEGINNING 1 WK PRIOR TO FIRST CARCINOGEN DOSE (STUDY DURATION: 53 WK), Route [Inhibitor]: ORAL, Species: MOUSE, Strain/Sex: A/J/FEMALE, Target Tissue: Type of Lesion: LUNG: ADENOMA OR ADENOCARCINOMA, Dose [Carcinogen]: 10 UMOL ONCE 1 WK POST FIRST INHIBITOR DOSE (STUDY DURATION: 53 WK), Promoter: NONE) 100%, 93%, 7%, not significant; (Carcinogen: 4-(METHYLNITROSAMINO)-1-(3-PYRIDYL)-1-BUTANONE [64091-50-5], Dose [Inhibitor]: 160 MMOL/KG IN DIET FOR 17 WK BEGINNING 1 WK PRIOR TO FIRST CARCINOGEN DOSE (STUDY DURATION: 17 WK), Route [Inhibitor]: ORAL, Species: MOUSE, Strain/Sex: A/J/FEMALE, Target Tissue: Type of Lesion: LUNG: ADENOMA, Dose [Carcinogen]: 10 UMOL ONCE 1 WK POST FIRST INHIBITOR DOSE (STUDY DURATION: 17 WK), Promoter: NONE) 100%, 100%, 0%, not significant; (Carcinogen: 4-(METHYLNITROSAMINO)-1-(3-PYRIDYL)-1-BUTANONE [64091-50-5], Dose [Inhibitor]: 160 MMOL/KG IN DIET FOR 53 WK BEGINNING 1 WK PRIOR TO FIRST CARCINOGEN DOSE (STUDY DURATION: 53 WK), Route [Inhibitor]: ORAL, Species: MOUSE, Strain/Sex: A/J/FEMALE, Target Tissue: Type of Lesion: LUNG: ADENOMA OR ADENOCARCINOMA, Dose [Carcinogen]: 10 UMOL ONCE 1 WK POST FIRST INHIBITOR DOSE (STUDY DURATION: 53 WK), Promoter: NONE) 100%, 97%, 3%, not significant; (Carcinogen: 4-(METHYLNITROSAMINO)-1-(3-PYRIDYL)-1-BUTANONE, 64091-91-4, Dose [Inhibitor]: 0, 6528 PPM IN DIET FOR 22 WK BEGINNING 1 WK PRIOR TO CARCINOGEN TREATMENT (STUDY DURATION: 98 WK), Route [Inhibitor]: ORAL, Species: RAT, Strain/Sex: F344/MALE, Target Tissue: Type of Lesion: LUNG: TUMOR, Dose [Carcinogen]: 1.5 MG/KG BW 3/WK FOR 20 WK, Promoter: NONE USED) 22/33 (67%), 22/36 (61%), 9%, not significant; (Carcinogen: 4-(METHYLNITROSAMINO)-1-(3-PYRIDYL)-1-BUTANONE, 64091-91-4, Dose [Inhibitor]: 0, 6528 PPM IN DIET FOR 22 WK BEGINNING 1 WK PRIOR TO CARCINOGEN TREATMENT (STUDY DURATION: 98 WK), Route [Inhibitor]: ORAL, Species: RAT, Strain/Sex: F344/MALE, Target Tissue: Type of Lesion: NASAL CAVITY: TUMOR, Dose [Carcinogen]: 1.5 MG/KG BW 3/WK FOR 20 WK, Promoter: NONE USED) 28/36 (78%), 22/36 (61%), 22%, not significant. Further, the “tumour outcome (control, treated, inhibition, significance)” value runs as follows: (Carcinogen: 4-(METHYLNITROSAMINO)-1-(3-PYRIDYL)-1-BUTANONE, 64091-91-4, Dose [Inhibitor]: 0, 13056 PPM IN DIET FOR 22 WK BEGINNING 1 WK PRIOR TO CARCINOGEN DOSE (STUDY DURATION: 98 WK), Route [Inhibitor]: ORAL, Species: RAT, Strain/Sex: F344/MALE, Target Tissue: Type of Lesion: NASAL CAVITY: TUMOR, Dose [Carcinogen]: 1.5 MG/KG BW 3/WK FOR 20 WK, Promoter: NONE USED) 28/36 (78%), 17/36 (47%), 40%, not significant; (Carcinogen: 4-(METHYLNITROSAMINO)-1-(3-PYRIDYL)-1-BUTANONE, 64091-91-4, Dose [Inhibitor]: 0, 13056 PPM IN DIET FOR 22 WK BEGINNING 1 WK PRIOR TO CARCINOGEN TREATMENT (STUDY DURATION: 98 WK), Route [Inhibitor]: ORAL, Species: RAT, Strain/Sex: F344/MALE, Target Tissue: Type of Lesion: LUNG: TUMOR, Dose [Carcinogen]: 1.5 MG/KG BW 3/WK FOR 20 WK, Promoter: NONE USED) 22/33 (67%), 21/36 (58%), 13%, not significant; (Carcinogen: 7,12-DIMETHYLBENZ[A]ANTHRACENE, 57-97-6, Dose [Inhibitor]: 0, 4000 PPM IN DIET FOR DURATION OF STUDY BEGINNING 1 WK PRIOR TO CARCINOGEN DOSE (STUDY DURATION: 107 D), Route [Inhibitor]: ORAL, Species: RAT, Strain/Sex: SPRAGUE-DAWLEY/FEMALE, Target Tissue: Type of Lesion: MAMMARY GLAND: ADENOCARCINOMA, Dose [Carcinogen]: 12 MG ONCE, Promoter: NONE USED) 92%, 88%, 4%, not significant; (Carcinogen: 7,12-DIMETHYLBENZ[A]ANTHRACENE, 57-97-6, Dose [Inhibitor]: 0, 8000 PPM IN DIET FOR DURATION OF STUDY BEGINNING 1 WK PRIOR TO CARCINOGEN DOSE (STUDY DURATION: 107 D), Route [Inhibitor]: ORAL, Species: RAT, Strain/Sex: SPRAGUE-DAWLEY/FEMALE, Target Tissue: Type of Lesion: MAMMARY GLAND: ADENOCARCINOMA, Dose [Carcinogen]: 12 MG ONCE, Promoter: NONE USED) 92%, 92%, 0%, not significant; (Carcinogen: AZOXYMETHANE, 25843-45-2, Dose [Inhibitor]: 0, 600 PPM IN DIET BEGINNING 2 WK PRIOR TO CARCINOGEN TREATMENT AND CONTINUING FOR DURATION OF STUDY (STUDY DURATION: 56, Route [Inhibitor]: ORAL, Species: RAT, Strain/Sex: F344/MALE, Target Tissue: Type of Lesion: COLON: INVASIVE ADENOCARCINOMA, Dose [Carcinogen]: 15 MG/KG 1/WK FOR 2 WK, Promoter: NONE USED) 34%, 22%, 35%, not significant; (Carcinogen: AZOXYMETHANE, 25843-45-2, Dose [Inhibitor]: 0, 600 PPM IN DIET BEGINNING 2 WK PRIOR TO CARCINOGEN TREATMENT AND CONTINUING FOR DURATION OF STUDY (STUDY DURATION: 56, Route [Inhibitor]: ORAL, Species: RAT, Strain/Sex: F344/MALE, Target Tissue: Type of Lesion: COLON: NONINVASIVE ADENOCARCINOMA, Dose [Carcinogen]: 15 MG/KG 1/WK FOR 2 WK, Promoter: NONE USED) 53%, 44%, 17%, not significant. Besides, the “tumour outcome (control, treated, inhibition, significance)” value is recorded as 34%, 19%, 44%, not significant (Carcinogen: AZOXYMETHANE, 25843-45-2, Dose [Inhibitor]: 0, 1200 PPM IN DIET BEGINNING 2 WK PRIOR TO CARCINOGEN TREATMENT AND CONTINUING FOR DURATION OF STUDY (STUDY DURATION: 5, Route [Inhibitor]: ORAL, Species: RAT, Strain/Sex: F344/MALE, Target Tissue: Type of Lesion: COLON: INVASIVE ADENOCARCINOMA, Dose [Carcinogen]: 15 MG/KG 1/WK FOR 2 WK, Promoter: NONE USED); 53%, 42%, 21%, not significant (Carcinogen: AZOXYMETHANE, 25843-45-2, Dose [Inhibitor]: 0, 1200 PPM IN DIET BEGINNING 2 WK PRIOR TO CARCINOGEN TREATMENT AND CONTINUING FOR DURATION OF STUDY (STUDY DURATION: 5, Route [Inhibitor]: ORAL, Species: RAT, Strain/Sex: F344/MALE, Target Tissue: Type of Lesion: COLON: NONINVASIVE ADENOCARCINOMA, Dose [Carcinogen]: 15 MG/KG 1/WK FOR 2 WK, Promoter: NONE USED); 100%, 100%, 0%, not significant (Carcinogen: DIETHYLNITROSAMINE, 55-18-5, Dose [Inhibitor]: 0, 30 MG/KG BW BY INTRAPERITONEAL INJECTION ON DAYS 13, 14 AND 15 OF AGE THEN 2 G/KG DIET FROM 21 TO 161 DAYS OF AGE (ST, Route [Inhibitor]: INTRAPERITONEAL, ORAL, Species: MOUSE, Strain/Sex: C3H/MALE, Target Tissue: Type of Lesion: LIVER: ADENOMA, Dose [Carcinogen]: 4 MG/KG IN TRICAPRYLIN ONCE ON DAY 15 OF AGE, Promoter: NONE USED).
